Test results as given in PMC7987348, “Structural basis for human TRPC5 channel inhibition by two distinct inhibitors” (eLife, 2021).
Numbering of substitutions follows the chain as printed. Where two headings read alike, the source gives them in different places.

Columns and labels:
hTRPC5 WT = molecular target: T1, hTRPC5 WT (Homo sapiens, UniProt Q9UL62); experiment: FLIPR calcium assay, inhibition of extracellular calcium-induced intracellular calcium increase; format: cell-based
T1 construct: We use full-length nontagged hTRPC5 construct for FLIPR assay unless indicated otherwise; expressed in transfected cells; host or cells: AD293
T1 sequence (Q9UL62 1-973): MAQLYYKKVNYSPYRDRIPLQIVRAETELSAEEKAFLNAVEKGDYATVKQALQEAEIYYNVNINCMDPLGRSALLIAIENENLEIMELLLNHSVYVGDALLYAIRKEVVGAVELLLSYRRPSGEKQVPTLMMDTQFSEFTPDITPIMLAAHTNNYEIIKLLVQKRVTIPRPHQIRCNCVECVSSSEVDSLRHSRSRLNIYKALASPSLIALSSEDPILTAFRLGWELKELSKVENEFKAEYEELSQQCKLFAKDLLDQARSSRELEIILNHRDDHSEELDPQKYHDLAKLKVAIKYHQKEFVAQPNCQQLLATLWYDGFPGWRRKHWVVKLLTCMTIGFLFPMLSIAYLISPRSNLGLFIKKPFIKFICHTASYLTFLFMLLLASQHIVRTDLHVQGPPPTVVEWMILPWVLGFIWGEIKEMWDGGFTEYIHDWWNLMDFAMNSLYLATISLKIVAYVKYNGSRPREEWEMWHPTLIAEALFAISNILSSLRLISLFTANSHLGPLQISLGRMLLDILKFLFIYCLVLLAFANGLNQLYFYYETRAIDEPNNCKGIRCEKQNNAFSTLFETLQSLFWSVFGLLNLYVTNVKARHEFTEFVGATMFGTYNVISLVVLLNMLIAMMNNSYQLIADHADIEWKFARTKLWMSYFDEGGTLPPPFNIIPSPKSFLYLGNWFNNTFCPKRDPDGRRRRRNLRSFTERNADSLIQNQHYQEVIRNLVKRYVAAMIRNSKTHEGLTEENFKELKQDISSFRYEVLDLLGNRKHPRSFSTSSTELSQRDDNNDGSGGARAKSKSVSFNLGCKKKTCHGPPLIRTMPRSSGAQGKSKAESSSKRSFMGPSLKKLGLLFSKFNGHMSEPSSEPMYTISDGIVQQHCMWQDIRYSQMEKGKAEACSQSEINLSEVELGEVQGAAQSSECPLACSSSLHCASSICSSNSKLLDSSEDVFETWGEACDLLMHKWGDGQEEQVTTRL

hTRPC5 S495A = molecular target: T2, hTRPC5 S495A (Homo sapiens, UniProt Q9UL62, S495A); experiment: FLIPR calcium assay, hTRPC5 mutant S495A; format: cell-based
T2 construct: We use full-length nontagged hTRPC5 construct for FLIPR assay unless indicated otherwise; expressed in transfected cells; host or cells: AD293
T2 sequence (Q9UL62 1-973 S495A): T1 sequence (Q9UL62 1-973) with S495A
Description: […]. Then the suspended cell culture was further diluted for 5.4- to 7-fold with culture medium and seeded onto black well, clear bottom, poly-D-lysine-coated 96-well plate (Costar) and cultured overnight. We use full-length nontagged hTRPC5 construct for FLIPR assay unless indicated otherwise. hTRPC5 plasmids were transfected into AD293 cells (60-80% confluence) with PEI. 30–40 hr post-transfection, culture medium was discarded and cells were incubated with 50 μl per well of 4 μM Rhod-2/AM (AAT Bioquest) in TARODES’s buffer (10 mM HEPES, 150 mM NaCl, 4 mM KCl, 2 mM MgCl2, 2 mM CaCl2, 11 mM glucose, pH 7.4) supplemented with 0.02% Pluronic F-127 (Sigma) for 5 min in dark at room temperature. Then dye was removed and replaced with 50 μl of TARODE’s buffer per well. The application of compounds and detection of intracellular calcium elevation were performed using FLIPR-TETRA (Molecular Devices) at room temperature (25–27°C). Fluorescence signals were read with excitation/emission at 510–545/565–625 nm.
[…]. Then fluorescence was measured for 300 s.
Buffer A contains 2× concentration of working concentration of inhibitor. […]. for control-Min, both buffer A and buffer B were replaced by TARODE’s buffer.
[…]; the average of fluorescence value of last 20 time points was considered as the ‘end fluorescence’. The value of ‘end fluorescence’ minus ‘start fluorescence’ was considered as ‘signal value’ for each well. […].
Three independent experiments were performed on different days (biological replicates), with each experiment containing three replicates (technique replicates).

hTRPC5 = molecular target: T3, hTRPC5 (Homo sapiens, UniProt Q9UL62); experiment: Whole cell recording of EA-elicited hTRPC5 currents in low calcium condition; settings: 50 μM CMZ; 200 nM EA; 1 mM EGTA and 1 mM EDTA to chelate intracellular Ca2+; −60 mV
T3 sequence (Q9UL62 1-973): T1 sequence (Q9UL62 1-973)

[1] = CMZ, 14 mM extracellular calcium, read-out: IC50
[2] = CMZ, log of IC50 in μM, logIC50 ± SEM, n = 3, read-out: LogIC50 (converted)
[3] = read-out: normalized RFU (% WT), Clemizole 0.200195 μM, 14 mM Ca2+, each column one independent experiment
[4] = read-out: normalized RFU (% WT), Clemizole 0.800781 μM, 14 mM Ca2+, each column one independent experiment
[5] = read-out: normalized RFU (% WT), Clemizole 1.60156 μM, 14 mM Ca2+, each column one independent experiment

Structure (SMILES): Clc1ccc(Cn2c(CN3CCCC3)nc3ccccc32)cc1 [CMZ, clemizole]
- Hill slope (hTRPC5 WT; CMZ): −2.52
- IC50 (hTRPC5 WT; [1]): 3.07 µM
- IC50 (hTRPC5 WT; [2]): 3.09 µM
- remaining activity at 0.200195 µM (hTRPC5 WT; [3]): 76.4%
- remaining activity at 0.800781 µM (hTRPC5 WT; [4]): 72.6%
- remaining activity at 1.60156 µM (hTRPC5 WT; [5]): 70.5%
- Hill slope (hTRPC5 S495A; CMZ): −1.21
- IC50 (hTRPC5 S495A; [1]): 3.03 µM
- IC50 (hTRPC5 S495A; [2]): 3.02 µM
- remaining activity at 0.200195 µM (hTRPC5 S495A; [3]): 83%
- remaining activity at 0.400391 µM (hTRPC5 S495A; read-out: normalized RFU (% WT), Clemizole 0.400391 μM, 14 mM Ca2+, each column one independent experiment): 78.4%
- remaining activity at 0.800781 µM (hTRPC5 S495A; [4]): 82%
- remaining activity at 1.60156 µM (hTRPC5 S495A; [5]): 79.3%
- remaining activity at 3.20312 µM (hTRPC5 S495A; read-out: normalized RFU (% WT), Clemizole 3.20312 μM, 14 mM Ca2+, each column one independent experiment): 50.6%
- remaining activity at 6.40625 µM (hTRPC5 S495A; read-out: normalized RFU (% WT), Clemizole 6.40625 μM, 14 mM Ca2+, each column one independent experiment): 46.5%
- remaining activity at 12.8125 µM (hTRPC5 S495A; read-out: normalized RFU (% WT), Clemizole 12.8125 μM, 14 mM Ca2+, each column one independent experiment): 40.3%
- inhibition of EA-elicited currents (hTRPC5): could inhibit EA-elicited currents
